Results published in patent US5011847A, “2,5-diaryl tetrahydrofurans and analogs thereof as PAF antagonists” (Merck & Co., Inc., priority 1989, dated 1991).

Target: T1, PAF specific receptor binding site, human platelet membranes (Homo sapiens, UniProt P25105)
T1 construct: from tissue; host or cells: human platelets (plasma membrane suspension)
Test: Inhibition of [3H] N-methylcarbamoyl-PAF binding to human platelet membranes
Settings: trans configuration; for inhibition at 0.003 µM: 3 nM; for inhibition at 0.03 µM: 30 nM
Experimental: The compounds of formula (I) inhibit PAF-induced functions in both the cellular and tissue levels by changing the PAF binding to its specific receptor site. The ability of a compound of formula (I) to inhibit the PAF binding to its specific receptor binding site on rabbit or human platelet or PMN plasma membranes was measured by a recently developed assay.
The inhibition of ^3 [H]-PAF or ^3 [H]-N-methylcarbamoyl-PAF binding to the human or rabbit platelet or PMN plasma membrane by a PAF antagonist of formula (I) was determined by a method employing isotopic labeling and filtration techniques. Generally, a series of Tris-buffered solutions of the selected antagonist at predetermined concentrations were prepared. Each of these solutions contains 1 pmole of ^3 H-PAF, a known amount of the test antagonist, and a sufficient amount of the pH 7.5 Tris-buffer solution (10 mM Tris, 0.25% bovine serum albumin, and 150 mM NaCl per ml water) to make the final volume of 1 ml. After adding into a set of test tubes each with 100 μg of the platelet plasma membrane suspension (S. B. Hwang, et al., Biochemistry. Vol. 22, pp. 4756-4763, 1983) and one of the Tris-buffer solutions described above, the resulting mixture in each test tube was incubated at 0° C. for about one hour or until the reaction was complete. Two control samples, one of which (C1) contains all the ingredients described above except the antagonist and the other (C2) contains C 1 plus a 1000-fold excess of unlabeled PAF, were also prepared and incubated simultaneously with the test samples. After the incubation was completed, the contents of each test tube were filtered under vacuo through a Whatman GF/C fiberglass filter and the residue washed rapidly several times with a total of 20 ml cold (0°-5° C.) Tris buffer solution. Each washed residue was then suspended in 10 ml scintillation solution (Aquasol 2, New England Nuclear, Conn.) and the radioactivity was counted in a Packard Tri-Carb 460CD Liquid Scintillation System. Defining the counts from a test sample as "Total binding with antagonist"; the counts from the control sample C1, as "Total binding C1 "; and the counts from the control sample C2 as "non-specific binding C2 ", the percent inhibition of each test antagonist can be determined by the following equations: [formula]
Specific binding=(Total binding C1)-(non-specific binding C2)
*Inibition of the binding of [^3 H] Nmethylcarbamoyl-PAF to human

T1 sequence (P25105 whole entry): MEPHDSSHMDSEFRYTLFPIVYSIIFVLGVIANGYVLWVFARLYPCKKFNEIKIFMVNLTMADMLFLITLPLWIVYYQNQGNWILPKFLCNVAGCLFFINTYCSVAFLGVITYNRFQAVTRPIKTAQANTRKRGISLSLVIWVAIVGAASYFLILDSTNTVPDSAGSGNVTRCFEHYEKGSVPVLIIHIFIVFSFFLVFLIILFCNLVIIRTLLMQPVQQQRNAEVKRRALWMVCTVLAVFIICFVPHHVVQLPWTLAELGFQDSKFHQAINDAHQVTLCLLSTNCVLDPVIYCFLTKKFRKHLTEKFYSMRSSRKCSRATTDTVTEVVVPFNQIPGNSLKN

## CCCOc1c(OCC(C)=O)cc([C@@H]2CC[C@@H](c3cnc(OC)c(OC)c3)O2)cc1S(=O)(=O)CCCO (relative stereo)
  inhibition at 0.003 µM: 30%
  inhibition at 0.03 µM: 66%

## CCCOc1c(OCCCO)cc([C@@H]2CC[C@@H](c3cnc(OC)c(OC)c3)O2)cc1S(=O)(=O)CC(C)=O (relative stereo) [trans-2-[3-(2-oxopropyl)sulfonyl-4-n-propoxy-5-(3-hydroxypropoxy)phenyl]-5[5-(2,3-dimethoxy)pyridyl]tetrahydrofuran]
  inhibition at 0.003 µM: 43%
  inhibition at 0.03 µM: 87%

## CCCOc1c(OCC(C)=O)cc([C@H]2CC[C@H](c3cccnc3)O2)cc1S(=O)(=O)CCC (relative stereo) [trans-2-[3-n-propylsulfonyl-4-n-propoxy-5-(2-oxopropoxy)phenyl]-5-(3-pyridyl) tetrahydrofuran]
  inhibition at 0.003 µM: 12%
  inhibition at 0.03 µM: 66%

## CCCOc1c(OCC(C)=O)cc([C@@H]2CC[C@@H](c3cnc(OC)c(OC)c3)O2)cc1S(=O)(=O)CCC (relative stereo) [trans-2-[3-n-propylsulfonyl-4-n-propoxy-5-(2-oxopropoxy)phenyl]-5-[5-(2,3-dimethoxy)pyridyl]tetrahydrofuran]
  inhibition at 0.003 µM: 63%
  inhibition at 0.03 µM: 93%

## CCCOc1c(OCC(C)=O)cc([C@@H]2CC[C@@H](c3cnc(OC)c(OC)n3)O2)cc1S(=O)(=O)CCC (relative stereo) [trans-2-[3-n-propylsulfonyl-4-n-propoxy-5-(2-oxopropoxy)phenyl]-5-[6-(2,3-dimethoxy)pyrazyl]tetrahydrofuran]
  inhibition at 0.003 µM: 58%
  inhibition at 0.03 µM: 100%

## CCCOc1c(OCCO)cc([C@@H]2CC[C@@H](c3cnc(OC)c(OC)c3)O2)cc1S(=O)(=O)CC(C)O (stereo partly drawn) [trans-2-[3-(2-Hydroxypropyl)sulfonyl-4-n-propoxy 5-(2-hydroxyethoxy)phenyl]-5-[5-(2,3-dimethoxy)pyridyl]tetrahydrofuran]
  inhibition at 0.003 µM: 13%
  inhibition at 0.03 µM: 58%

## CCCOc1c(OCC(C)=O)cc([C@@H]2CC[C@@H](c3cnc(OC)c(OC)c3)O2)cc1S(=O)(=O)CC(C)O (stereo partly drawn) [trans-2-[3-(2-Hydroxypropyl)sulfonyl-4-n-propoxy-5-(2-oxopropoxy)phenyl]-5-[5-(2,3-dimethoxy)pyridyl]tetrahydrofuran]
  inhibition at 0.003 µM: 31%
  inhibition at 0.03 µM: 81%

## CCCOc1c(OCC(C)=O)cc([C@@H]2CC[C@@H](c3cnc(OC)c(OC)n3)O2)cc1S(=O)(=O)CC(C)O (stereo partly drawn) [trans-2-[3-(2-Hydroxypropyl)sulfonyl-4-n-propoxy-5-(2-oxopropoxy)phenyl]-5-[6-(2.3 dimethoxy)pyrazyl]tetrahydrofuran]
  inhibition at 0.003 µM: 42%
  inhibition at 0.03 µM: 81%

## CCCOc1c(OCCCO)cc([C@@H]2CC[C@@H](c3cnc(OC)c(OC)c3)O2)cc1S(=O)(=O)CC(C)O (stereo partly drawn) [trans-2-[3-(2-Hydroxypropyl)sulfonyl-4-n-propoxy-5-(3-hydroxypropoxy)phenyl]-5[5-(2,3-dimethoxy)pyridyl]tetrahydrofuran]
  inhibition at 0.003 µM: 16%
  inhibition at 0.03 µM: 75%

## CCCOc1c(OCC(C)O)cc([C@@H]2CC[C@@H](c3cnc(OC)c(OC)c3)O2)cc1S(=O)(=O)CCC (stereo partly drawn) [trans-2-[3-n-propylsulfonyl-4-n-propoxy-5-(2-hydroxypropoxy)phenyl]-5-[5-(2,3-dimethoxy)pyridyl]tetrahydrofuran]
  inhibition at 0.003 µM: 54%
  inhibition at 0.03 µM: 100%

## CCCOc1c(OCC(C)O)cc([C@@H]2CC[C@@H](c3cnc(OC)c(OC)n3)O2)cc1S(=O)(=O)CCC (stereo partly drawn) [trans-2-[3-n-propylsulfonyl-4-n-propoxy-5-(2-hydroxypropoxy)phenyl]-5-[6-(2,3-dimethoxy)pyrazyl]tetrahydrofuran]
  inhibition at 0.003 µM: 60%
  inhibition at 0.03 µM: 100%
